Active and inactive are the calls of the source. The rule behind the calls is not given here.
Key:
Format in all cases: functional
[1] = Antifolate activity against Lactobacillus leichmannii at 150 ug/ml in presence of 0.02 ug/ml of folinic acid and 250 ug/ml riboflavin
[2] = Antifolate activity against Lactobacillus leichmannii at 20 ug/ml
[3] = Antifolate activity against Lactobacillus leichmannii at 20 to 60 ug/ml in presence of 0.02 ug/ml of folinic acid
[4] = Antifolate activity against Lactobacillus leichmannii at 7 ug/ml
[5] = system: Lactobacillus leichmannii; experiment: Inhibition index, ratio of antifolate activity against Lactobacillus leichmannii in presence of 250 ug/ml of riboflavin to antifolate activity against Lactobacillus leichmannii absence of riboflavin
[6] = system: Lactobacillus leichmannii; experiment: Inhibition index, ratio of antifolate activity against Lactobacillus leichmannii in presence of 0.02 ug/ml of folinic acid to antifolate activity against Lactobacillus leichmannii absence of folinic acid

Cc1cc2nc3c(N)nc(=N)nc-3n(C[C@H](O)[C@H](O)[C@H](O)CO)c2cc1C
growth inhibition (GI) [1]: inactive
growth inhibition (GI) [2]: Active
growth inhibition (GI) [3]: inactive
growth inhibition (GI) [4]: Active
Ratio [5]: 1.5
Ratio [6]: 6000

Source: ChEMBL document CHEMBL3244369, “Synthesis and inhibition analysis of 2(4)-imino-4(2)-amino-2,4-dideoxyriboflavin, a dual antagonist of riboflavin and folinic acid” (J Med Chem, 1977)
